Measured values from patent US20250302832A1, “PYRAZINE DERIVATIVES AND USES THEREOF” (FOGHORN THERAPEUTICS INC., priority 2022, published 2025).
Read-outs that look alike come from different tables or passages of the source.

Assays:
[1] = molecular target: T1, HiBit-BRM fusion protein (Homo sapiens, UniProt P51531); assay: HiBiT-BRM cell-based degradation assay (Nano-Glo HiBiT lytic detection, 24 h); conditions: HeLa cell line expressing HiBiT-BRM; for DC50: read-out: BRM HiBit Degradation IC50
T1 construct: expressed in transfected cells
Experimental: (§1) Procedure: A stable HeLa cell line expressing HiBiT-BRM was generated. On day 0, 5000 cells were seeded in 40 μL of media into each well of 384-well cell culture plates. On day 1, cells were treated with 120 nL DMSO or 120 nL of 3-fold serially DMSO-diluted compounds (10 points in duplicate with 30 μM as final top dose). Subsequently plates were incubated for 24 h in a standard tissue culture incubator and equilibrated at room temperature for 15 minutes. Nano-GB HiBiT Lytic Detection System (Promega N3050) reagent was freshly prepared and 20 ul was added to each well. Upon addition of this LgBit-containing reagent, the HiBiT and LgBiT proteins associate to form the luminescent NanoBiT luciferase. The plates were shaken for 10 minutes at room temperature and the bioluminescence read using an EnVision plate reader (PerkinElmer).
(§2) The degradation % was calculated using the following formula: % degradation=100%−100%×(Lumsample−LuMLC)/(LuMHC−LuMLC). DMSO treated cells are employed as High Control (HC) and 2 μM of a known BRM/BRG1 degrader standard treated cells are employed as Low Control (LC).

[2] = molecular target: T2, HiBit-BRG1 fusion protein (Homo sapiens, UniProt P51532); assay: HiBiT-BRG1 cell-based degradation assay (Nano-Glo HiBiT lytic detection, 24 h); conditions: for Dmax: read-out: BRG1 HiBit Degradation Maximum (%)
T2 construct: expressed in transfected cells
Experimental: as §1, with “On day 1, cells were treated with 120 nL DMSO or 120 nL of 3-fold serially DMSO-diluted compounds (10 points in duplicate with 30 μM as final top dose).” left out
For measurement of BRG1 degradation, a stable HeLa cell line expressing HiBit-BRG1 and LgBit was generated. The same protocol as above was then followed.
as §2

[3] = HeLa cell line expressing HiBit-BRG1 and LgBit

T1 sequence (P51531 whole entry, the tested form may be a part): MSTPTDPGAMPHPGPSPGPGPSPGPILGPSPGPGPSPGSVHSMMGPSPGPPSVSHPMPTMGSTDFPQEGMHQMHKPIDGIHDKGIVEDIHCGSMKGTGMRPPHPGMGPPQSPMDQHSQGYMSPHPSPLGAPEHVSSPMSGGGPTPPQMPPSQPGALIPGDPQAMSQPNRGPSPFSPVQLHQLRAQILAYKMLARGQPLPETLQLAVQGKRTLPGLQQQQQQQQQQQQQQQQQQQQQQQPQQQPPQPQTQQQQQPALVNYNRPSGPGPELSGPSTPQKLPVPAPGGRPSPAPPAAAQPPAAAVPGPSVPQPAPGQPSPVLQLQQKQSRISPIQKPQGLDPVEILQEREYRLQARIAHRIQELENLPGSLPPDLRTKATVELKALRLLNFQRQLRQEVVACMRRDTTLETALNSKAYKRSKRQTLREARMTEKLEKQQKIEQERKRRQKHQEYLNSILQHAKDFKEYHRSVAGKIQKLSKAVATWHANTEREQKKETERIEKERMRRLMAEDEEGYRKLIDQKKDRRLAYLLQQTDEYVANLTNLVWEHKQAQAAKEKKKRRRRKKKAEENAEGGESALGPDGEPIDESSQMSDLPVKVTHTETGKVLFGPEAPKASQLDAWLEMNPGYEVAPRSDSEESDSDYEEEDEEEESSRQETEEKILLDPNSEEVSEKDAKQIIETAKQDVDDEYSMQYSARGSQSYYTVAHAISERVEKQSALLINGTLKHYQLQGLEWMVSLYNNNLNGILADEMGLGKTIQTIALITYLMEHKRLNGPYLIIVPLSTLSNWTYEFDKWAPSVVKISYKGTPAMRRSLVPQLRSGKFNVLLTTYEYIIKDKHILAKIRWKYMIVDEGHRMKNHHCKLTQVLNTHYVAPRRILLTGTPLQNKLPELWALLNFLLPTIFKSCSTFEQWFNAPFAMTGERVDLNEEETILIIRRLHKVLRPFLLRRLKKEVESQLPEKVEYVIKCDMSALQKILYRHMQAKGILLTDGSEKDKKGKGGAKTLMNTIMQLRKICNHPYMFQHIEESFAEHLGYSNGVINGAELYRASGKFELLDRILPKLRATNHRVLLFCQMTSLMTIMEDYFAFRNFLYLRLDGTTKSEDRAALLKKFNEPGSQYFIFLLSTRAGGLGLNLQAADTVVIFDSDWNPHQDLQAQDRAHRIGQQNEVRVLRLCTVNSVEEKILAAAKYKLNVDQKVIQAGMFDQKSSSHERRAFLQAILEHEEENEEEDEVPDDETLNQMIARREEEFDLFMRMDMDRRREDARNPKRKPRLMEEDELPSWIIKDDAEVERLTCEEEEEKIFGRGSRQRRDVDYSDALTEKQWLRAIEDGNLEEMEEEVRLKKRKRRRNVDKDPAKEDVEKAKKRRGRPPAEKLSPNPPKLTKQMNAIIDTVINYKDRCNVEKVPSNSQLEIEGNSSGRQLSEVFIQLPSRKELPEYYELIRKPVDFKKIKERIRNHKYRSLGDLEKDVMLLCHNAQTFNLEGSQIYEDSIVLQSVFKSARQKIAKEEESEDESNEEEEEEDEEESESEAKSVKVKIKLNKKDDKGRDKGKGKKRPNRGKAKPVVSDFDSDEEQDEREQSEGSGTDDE
T2 sequence (P51532 whole entry, the tested form may be a part): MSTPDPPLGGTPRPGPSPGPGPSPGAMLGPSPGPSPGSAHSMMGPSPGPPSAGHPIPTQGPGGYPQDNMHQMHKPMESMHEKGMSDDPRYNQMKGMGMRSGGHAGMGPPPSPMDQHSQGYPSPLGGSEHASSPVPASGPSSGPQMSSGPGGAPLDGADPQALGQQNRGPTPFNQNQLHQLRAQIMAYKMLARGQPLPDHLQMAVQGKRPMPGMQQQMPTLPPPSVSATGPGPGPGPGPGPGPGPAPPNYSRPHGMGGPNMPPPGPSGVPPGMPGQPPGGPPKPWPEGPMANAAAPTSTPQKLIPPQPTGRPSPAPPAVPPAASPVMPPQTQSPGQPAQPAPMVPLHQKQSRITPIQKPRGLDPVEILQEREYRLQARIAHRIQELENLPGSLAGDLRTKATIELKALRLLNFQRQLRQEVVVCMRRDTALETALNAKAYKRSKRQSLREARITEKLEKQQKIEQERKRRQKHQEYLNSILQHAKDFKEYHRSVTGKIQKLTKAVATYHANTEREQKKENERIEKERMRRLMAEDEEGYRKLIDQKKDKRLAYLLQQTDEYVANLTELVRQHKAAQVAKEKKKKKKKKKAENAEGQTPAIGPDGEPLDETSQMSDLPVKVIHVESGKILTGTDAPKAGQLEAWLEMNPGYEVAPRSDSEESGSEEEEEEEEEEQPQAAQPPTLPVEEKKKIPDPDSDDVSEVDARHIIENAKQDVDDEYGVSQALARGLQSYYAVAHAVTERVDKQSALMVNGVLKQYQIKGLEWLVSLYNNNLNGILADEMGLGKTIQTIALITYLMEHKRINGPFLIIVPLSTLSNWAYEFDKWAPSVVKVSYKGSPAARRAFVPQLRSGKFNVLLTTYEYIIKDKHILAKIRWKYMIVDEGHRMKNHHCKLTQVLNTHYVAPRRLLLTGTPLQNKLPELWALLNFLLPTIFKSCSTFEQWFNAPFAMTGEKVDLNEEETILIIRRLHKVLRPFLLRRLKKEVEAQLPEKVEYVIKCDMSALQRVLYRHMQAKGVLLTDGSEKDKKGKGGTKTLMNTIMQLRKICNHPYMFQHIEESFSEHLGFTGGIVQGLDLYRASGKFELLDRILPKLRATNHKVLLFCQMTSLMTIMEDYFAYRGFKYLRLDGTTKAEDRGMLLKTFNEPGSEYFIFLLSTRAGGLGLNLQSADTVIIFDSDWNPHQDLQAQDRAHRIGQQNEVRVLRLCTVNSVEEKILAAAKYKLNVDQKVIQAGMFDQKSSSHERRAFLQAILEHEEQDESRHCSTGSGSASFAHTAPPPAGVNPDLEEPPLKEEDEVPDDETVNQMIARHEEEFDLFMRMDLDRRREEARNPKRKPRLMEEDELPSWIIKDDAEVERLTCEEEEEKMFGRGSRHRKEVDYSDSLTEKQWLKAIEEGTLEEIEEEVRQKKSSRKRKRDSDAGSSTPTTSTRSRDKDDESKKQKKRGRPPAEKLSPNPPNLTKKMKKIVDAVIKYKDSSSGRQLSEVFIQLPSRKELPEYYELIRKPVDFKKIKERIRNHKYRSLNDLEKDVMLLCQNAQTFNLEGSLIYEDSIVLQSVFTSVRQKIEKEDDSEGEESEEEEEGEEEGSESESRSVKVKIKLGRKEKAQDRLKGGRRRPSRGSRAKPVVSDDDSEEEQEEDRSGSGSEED

How did the “BRM HiBit Degradation Maximum (%)” value [1] turn out when Cc1ncsc1-c1ccc([C@H](C)NC(=O)[C@@H]2C[C@@H](O)CN2C(=O)[C@H](c2cc(-c3cnc(N4CCC(c5cc6nnc(-c7ccccc7O)cc6n5C)CC4)nc3)no2)C(C)C)cc1 [Compound 22, (2S,4R)-4-hydroxy-1-((S)-2-(3-(2-(4-(3-(2-hydroxyphenyl)-5-methyl-5H-pyrrolo[3,2-c]pyridazin-6-yl)piperidin-1-yl)pyrimidin-5-yl)isoxazol-5-yl)-3-methylbutanoyl)-N—((S)-1-(4-(4-methylthiazol-5-yl)phenyl)ethyl)pyrrolidine-2-carboxamide] was run?
The value was “B (“B” indicates maximum degradation ≥50%)”.

And the DC50 [1]?
Its DC50 is > 100 nM.

And the Dmax ([2]; HeLa)?
Its Dmax is < 50%.

What does the source list for CCn1c(C2CCN(c3ncc(-c4cc([C@H](C(=O)N5C[C@H](O)C[C@H]5C(=O)N[C@@H](C)c5ccc(-c6scnc6C)cc5)C(C)C)on4)cn3)CC2)cc2nnc(-c3ccccc3O)cc21 [Compound 23, (2S,4R)-1-[(2R)-2-[3-(2-{4-[5-ethyl-3-(2-hydroxyphenyl)pyrrolo[3,2-c]pyridazin-6-yl]piperidin-1-yl}pyrimidin-5-yl)-1,2-oxazol-5-yl]-3-methylbutanoyl]-4-hydroxy-N-[(1S)-1-[4-(4-methyl-1,3-thiazol-5-yl)phenyl]ethyl]pyrrolidine-2-carboxamide]?
BRM HiBit Degradation Maximum (%) [1]: A (“A” indicates maximum degradation ≥75%); DC50 [1]: < 10 nM; Dmax [2, 3]: > 50%; DC50 ([2]; HeLa cell line expressing HiBit-BRG1 and LgBit, read-out: BRMG1 HiBit Degradation IC50): > 10 nM

What does the source list for CCn1c(C2CCN(c3ncc(-c4cc([C@@H](C(=O)N5C[C@H](O)C[C@H]5C(=O)N[C@@H](C)c5ccc(-c6scnc6C)cc5)C(C)C)on4)cn3)CC2)cc2nnc(-c3ccccc3O)cc21 [Compound 24, (2S,4R)-1-[(2S)-2-[3-(2-{4-[5-ethyl-3-(2-hydroxyphenyl)pyrrolo[3,2-c]pyridazin-6-yl]piperidin-1-yl}pyrimidin-5-yl)-1,2-oxazol-5-yl]-3-methylbutanoyl]-4-hydroxy-N-[(1S)-1-[4-(4-methyl-1,3-thiazol-5-yl)phenyl]ethyl]pyrrolidine-2-carboxamide]?
BRM HiBit Degradation Maximum (%) [1]: B (“B” indicates maximum degradation ≥50%); DC50 [1]: > 10 nM; Dmax [2, 3]: < 50%

With Cc1ncsc1-c1ccc([C@H](C)NC(=O)[C@@H]2C[C@@H](O)CN2C(=O)[C@@H](c2cc(-c3cnc(N4CCC(c5cc6nnc(-c7ccccc7O)cc6n5C5CC5)CC4)nc3)no2)C(C)C)cc1 [Compound 25, (2S,4R)-1-[(2R)-2-[3-(2-{4-[5-cyclopropyl-3-(2-hydroxyphenyl)pyrrolo[3,2-c]pyridazin-6-yl]piperidin-1-yl}pyrimidin-5-yl)-1,2-oxazol-5-yl]-3-methylbutanoyl]-4-hydroxy-N-[(1S)-1-[4-(4-methyl-1,3-thiazol-5-yl)phenyl]ethyl]pyrrolidine-2-carboxamide] as the compound, how does the “BRM HiBit Degradation Maximum (%)” value [1] read?
Its value is “A (“A” indicates maximum degradation ≥75%)”.

And the DC50 [1]?
The DC50 was < 10 nM.

What about the Dmax [2, 3] of the same compound?
Its Dmax is < 50%.

What does the source list for Cc1ncsc1-c1ccc([C@H](C)NC(=O)[C@@H]2C[C@@H](O)CN2C(=O)[C@H](c2cc(-c3cnc(N4CCC(c5cc6nnc(-c7ccccc7O)cc6n5C5CC5)CC4)nc3)no2)C(C)C)cc1 [Compound 26, (2S,4R)-1-[(2S)-2-[3-(2-{4-[5-cyclopropyl-3-(2-hydroxyphenyl)pyrrolo[3,2-c]pyridazin-6-yl]piperidin-1-yl}pyrimidin-5-yl)-1,2-oxazol-5-yl]-3-methylbutanoyl]-4-hydroxy-N-[(1S)-1-[4-(4-methyl-1,3-thiazol-5-yl)phenyl]ethyl]pyrrolidine-2-carboxamide]?
BRM HiBit Degradation Maximum (%) [1]: C (“C” indicates maximum degradation <50%); Dmax [2, 3]: < 50%
